Assay results published in patent publication US20190281828A1 (priority 2016, published 2019).

Tests used:
Pyricularia oryzae = type: cell-based; settings: inhibition of spore germination and mycelium growth, liquid culture, 4 to 7 days incubation
Alternaria alternata = experiment: In vitro test for ED50 values, liquid culture, Alternaria alternata; type: cell-based; settings: inhibition of spore germination and mycelium growth, 4 to 7 days incubation
Excerpt: (§1) Example E: In Vitro Test for the Calculation of ED50-Values; Comparison of Compounds According to the Invention Vs. Compounds Encompassed by WO 2010/146116 A1
(§2) • Solvent: DMSO • Culture medium: 14.6 g anhydrous D-glucose (VWR), 7.1 g Mycological Peptone (Oxoid), 1.4 g granulated Yeast Extract (Merck) per 1 liter water • Inoculum: spore suspension
(§3) Fungicides were solubilized in DMSO and the resulting solutions used to prepare test solutions of different fungicide concentrations in the required range. The final concentration of DMSO used in the assay was <1% by volume.
(§4) A spore suspension was prepared and diluted to the desired spore density.
(§5) Fungicides were evaluated for their ability to inhibit spore germination and mycelium growth in liquid culture assay. The compounds were added in the desired concentration to the culture medium with spores. After 4 to 7 days incubation, fungi-toxicity of compounds was determined by spectrometric measurement of mycelium growth. Inhibition of fungal growth was determined by comparing the absorbance values in wells containing the fungicides with the absorbance in control wells without fungicides.

Uromyces appendiculatus = settings: 500 ppm of active ingredient; preventive spray on young bean plants; evaluated 11 days after inoculation
Description: (§6) • Solvent: 5% by volume of Dimethyl sulfoxide • 10% by volume of Acetone • Emulsifier: 1 μl of Tween® 80 per mg of active ingredient
(§7) The active ingredients are made soluble and homogenized in a mixture of Dimethyl sulfoxide/Acetone/Tween® 80 and then diluted in water to the desired concentration.
(§8) Control plants are treated only with an aqueous solution of Acetone/Dimethyl sulfoxide/Tween® 80.
After 24 hours, the plants are contaminated by spraying the leaves with an aqueous suspension of Uromyces appendiculatus spores. The contaminated bean plants are incubated for 24 hours at 20° C. and at 100% relative humidity and then for 10 days at 20° C. and at 70-80% relative humidity.
(§9) The test is evaluated 11 days after the inoculation.

Septoria tritici [1] = settings: 500 ppm of active ingredient; preventive spray on young wheat plants; evaluated 24 days after inoculation
Description: as §6, §7, §8
After 24 hours, the plants are contaminated by spraying the leaves with an aqueous suspension of Septoria tritici spores. The contaminated wheat plants are incubated for 72 hours at 18° C. and at 100% relative humidity and then for 21 days at 20° C. and at 90% relative humidity.
The test is evaluated 24 days after the inoculation.

Puccinia recondita = settings: 500 ppm of active ingredient; preventive spray on young wheat plants; evaluated 11 days after inoculation
Description: Example A: In Vivo Preventive Test on Puccinia recondita (Brown Rust on Wheat)
as §6, §7, §8
After 24 hours, the plants are contaminated by spraying the leaves with an aqueous suspension of Puccinia recondita spores. The contaminated wheat plants are incubated for 24 hours at 20° C. and at 100% relative humidity and then for 10 days at 20° C. and at 70-80% relative humidity.
as §9

physchem = settings: reversed phase HPLC column
Excerpt: Calibration was done with straight-chain alkan2-ones (with 3 to 16 carbon atoms) with known Log P values (measurement of Log P values using retention times with linear interpolation between successive alkanones).

Sphaerotheca fuliginea = settings: 500 ppm of active ingredient; preventive spray on young gherkin plants; evaluated 15 days after inoculation
Description: Example C: In Vivo Preventive Test on Sphaerotheca fuliginea (Powdery Mildew on Cucurbits)
as §6, §7, §8
After 24 hours, the plants are contaminated by spraying the leaves with an aqueous suspension of Sphaerotheca fuliginea spores. The contaminated gherkin plants are incubated for 72 hours at 18° C. and at 100% relative humidity and then for 12 days at 20° C. and at 70-80% relative humidity.
The test is evaluated 15 days after the inoculation.

Septoria tritici [2] = experiment: In vitro test for ED50 values, liquid culture, Septoria tritici; type: cell-based; settings: inhibition of spore germination and mycelium growth, 4 to 7 days incubation
Excerpt: as §1, §2, §3, §4, §5

Botrytis cinerea = experiment: In vitro test for ED50 values, liquid culture, Botrytis cinerea; type: cell-based; settings: inhibition of spore germination and mycelium growth, 4 to 7 days incubation
Excerpt: as §1, §2, §3, §4, §5

Q: Which “Pyricularia oryzae ED50 value in ppm” value (Pyricularia oryzae) does the source give for Clc1ccc(Oc2ccc(C3(Cn4cncn4)OCCO3)c(Cl)n2)cc1 [I.01, 2-chloro-6-(4-chlorophenoxy)-3-[2-(1,2,4-triazol-1-ylmethyl)-1,3-dioxolan-2-yl]pyridine] here?
A: 0.56 ppm

Q: What about the “Alternaria alternata ED50 value in ppm” value (Alternaria alternata) of the same molecule?
A: 0.12 ppm

Q: What about the efficacy (Uromyces appendiculatus) of the same molecule?
A: at least 70%

Q: What about the efficacy (Septoria tritici [1]) of the same molecule?
A: at least 70%

Q: And the efficacy (Puccinia recondita)?
A: at least 70%

Q: And the chromatographic logP (physchem)?
A: 2.86

Q: What about the efficacy (Sphaerotheca fuliginea) of the same molecule?
A: at least 70%

Q: What does the source list for CC1COC(Cn2cncn2)(c2ccc(Oc3ccc(Cl)cc3)nc2Cl)O1 (stereo not drawn) [I.02]?
A: Pyricularia oryzae ED50 value in ppm (Pyricularia oryzae): 1.2 ppm; Septoria tritici ED50 value in ppm (Septoria tritici [2]): 0.008 ppm; Botrytis cinerea ED50 value in ppm (Botrytis cinerea): 2.7 ppm

Q: For Clc1ccc(Oc2cc(Cl)c(C3(Cn4cncn4)OCCO3)cn2)cc1 [reference compound], which “Pyricularia oryzae ED50 value in ppm” value (Pyricularia oryzae) is on record?
A: 1.3 ppm

Q: And the “Alternaria alternata ED50 value in ppm” value (Alternaria alternata)?
A: 0.5 ppm

Q: For CC1COC(Cn2cncn2)(c2cnc(Oc3ccc(Cl)cc3)cc2Cl)O1 (stereo not drawn) [reference compound], which “Pyricularia oryzae ED50 value in ppm” value (Pyricularia oryzae) is on record?
A: 9.5 ppm

Q: And the “Septoria tritici ED50 value in ppm” value (Septoria tritici [2])?
A: 0.013 ppm

Q: And the “Botrytis cinerea ED50 value in ppm” value (Botrytis cinerea)?
A: 8.9 ppm
